Experimental data from US9133239B2, “Compositions and methods for inhibiting matrix metalloproteinase (MMP)-mediated cell migration” (THE RESEARCH FOUNDATION FOR THE STATE UNIVERSITY OF NEW YORK, priority 2010, dated 2015).
Where two headings read alike, the source gives them in different places. Where a SMILES comes first, the peptide text is derived from it. Where no end group is shown, it is not given here.

Legend:
[1] = tested on: human breast cancer MCF-7 cells ectopically expressing MT1-MMP; assay: proMMP-2 activation by gelatin zymography of conditioned medium; assay type: cell-based; conditions: MCF-7 cells expressing MT1-MMP
Text: The conditioned medium from human breast cancer MCF-7 cells ectopically expressing MT1-MMP in the presence of scrambled peptides or specific peptides was examined by gelatin zymography to determine whether interference with the PEX domain of MT1-MMP by the peptides also affects the proteolytic activity of MT1-MMP.

[2] = tested on: human MDA-MB-231 breast cancer cell
[3] = tested on: COS-1 cells transfected with MT1-MMP cDNA; assay: Cell migration of MT1-MMP transfected COS-1 cells; assay type: cell-based
Text: (§1) Based on our studies of the structure-function relationship of the MT1-MMP hemopexin (PEX)-like domain, we designed and synthesized peptides mimicking 8 amino acids of the outermost β strand of blades I, II, III and IV from the PEX domain, named IS4-8 ([…]) (SEQ ID NO:01), IIS4-8 ([…]) (SEQ ID NO:02), and IVS4-8 ([…]) (SEQ ID NO:03), respectively. Corresponding scrambled peptides were synthesized as controls. […] We further designed truncated forms of IS4-8 and IVS-8 peptides from the N- and C-terminus of the peptides. The C-terminal 5 amino acids of the IS4-8, named IS4-5 (GYPMP) (SEQ ID NO:04) is essential for inhibition of functional MT1-MMP. […] Thus, the PEX domain of MT1-MMP is a high-specificity target for interference with MT1-MMP-induced cancer cell invasion and for identification of cancer cells expressing MT1-MMP. These novel bi-functional inhibitory peptides will provide specificity with limited systemic toxicity.

[4] = tested on: human MDA-MB-231 breast cancer cells; assay: Cell migration of MDA-MB-231 cells expressing endogenous MT1-MMP; assay type: cell-based
Text: as §1

[5] = tested on: human MDA-MB-231, and -435 breast cancer cells (-435); assay: Cell migration of MDA-MB-435 cells expressing endogenous MT1-MMP; assay type: cell-based
Text: as §1

[6] = tested on: human HT1080 fibrosarcoma cells; assay: Cell migration of HT1080 cells expressing endogenous MT1-MMP; assay type: cell-based
Text: as §1

[7] = tested on: cell migration induced by MMP-9; assay: Cell migration induced by MMP-9 (specificity); assay type: cell-based
Text: as §1
(§2) The term “specifically reduces cell migration that is mediated by MT1-MMP” when in reference to a composition means that the composition reduces cell migration that is mediated by MT1-MMP, in the absence of a reduction of cell migration that is mediated by MMP-9 and/or MT3-MMP and/or MT6-MMP (FIG. 7).

[8] = tested on: cell migration induced by MT6-MMP; assay: Cell migration induced by MT6-MMP (specificity); assay type: cell-based
Text: as §1, §2

[9] = tested on: MT1-MMP-mediated cell migration (LNCaP); assay: FITC-fibronectin degradation assay and Transwell chamber migration assay with GST-MTPEX; assay type: cell-based
Text: Our results and others emphasized the critical role of the PEX domain of MT1-MMP in cells migration (8,57). […] As proof of this hypothesis, we generated chimeric cDNAs encoding GST and GST-MTPEX chimera.

[10] = tested on: GFP expressing MDA-MB-435 cells; assay: Mammary fat pad tumor growth and lung metastasis model; assay type: in vivo, immunodeficient female mice; conditions: 20 mg/kg/day i.p. and intratumoral alternatively; after twelve weeks
Experimental: 2×10^6 GFP expressing MDA-MB-435 cells were injected in the mammary fat pad of immunodeficient female mice followed by administering 20 mg/kg/day of specific and scrambled peptides via i.p. and intratumoral injection, alternatively. Primary tumor size was monitored over a 10-week time course. Inhibitory peptides had no effect on tumor growth (A). After twelve weeks, the mice were sacrificed and the organs were pathologically examined. The lungs were sliced into 3 mm thick sections. The incidence of lung metastasis was assessed by examining metastatic tumors in the lungs (B). The number (C) and size (D) of metastasized tumors in the lungs were microscopically counted based on GFP expression and measured using Nikon NIS Elements Imaging software, respectively.

[11] = tested on: MT1-GFP expressing LNCaP cells; assay: FITC-labeled Matrigel degradation in the presence of proMMP-2; assay type: cell-based, human
Text: To examine the role of MT1-MMP in invasion through basement membrane in an in vitro assay, we labeled Matrigel, a soluble basement membrane matrix from the EHS tumor with FITC. Western blotting using anti-type IV collagen and anti-laminin V antibodies confirmed that type IV collagen and laminin V remained intact in FITC-labeled Matrigel. Using FITC-labeled Matrigel-coated coverslips, LNCaP cells producing MT1-GFP were examined for Matrigel degradation. MT1-MMP expressing LNCaP cells readily degraded the FITC-labeled substrate (depicted by loss of fluorescence-labeled Matrigel in FIG. 31A-a).

[12] = tested on: cells expressing MT1-MMP; assay: Flow cytometry binding to cells; conditions: flow cytometry analysis
Text: as §1

[13] = tested on: MT1-GFP expressing LNCaP cells; assay: Cell surface E-cadherin shedding; assay type: cell-based, human
Experimental: To examine if shedding of E-cadherin at cell-cell adherens junctions correlated with loss of cell surface E-cadherin, biotinylation of cell surface proteins followed by streptavdin precipitation and Western blotting using anti-E-cadherin antibody was performed (51).

[14] = tested on: MT1-GFP expressing cells; assay: Combined FITC-labeled fibronectin substrate degradation and phagokinetic assay; assay type: cell-based
Text: Using FITC-labeled gelatin coated coverslips and engineered MT1-MMP substitution mutations, structure-function relationships of MT1-MMP in cell invasion and migration were studied by domain shuffling experiments (FIG. 32A). As expected, MT1-MMP expressing cells degraded FITC-labeled gelatin and migrated over digested substrate (FIG. 32B). […] To examine the effect of proteolytic activity of MT1-MMP on cell migration, we employed a natural MMP inhibitor, TIMP-2 in combined FITC-labeled substrate degradation assay and phagokinetic assay (54) by coating coverslips with both FIT-labeled fibronectin and colloidal gold particles.

[15] = tested on: MT1-GFP expressing LNCaP cells; assay: Cell scattering in 3D type I collagen gel; assay type: cell-based, human; conditions: TIMP-2 10 nM
Text: Although increasing evidence highlight the importance of proteolytic remodeling of the ECM during invasion (65,66), recent reports have challenged this concept showing that the ability of tumor cells to migrate through collagenous barriers by switching to an amoeboid-like form was independent on proteinases (67). This observation, however, was possible due to reversible MMP inhibitors and low concentration of inhibitors (68). […] Employing a 3-dimensional (3D) culture in native type I collagen gel, we examined the cell scattering effect of MT1-GFP. […] GFP-alone expressing LNCaP cells formed spherical aggregates (FIG. 37A-a2-a3), while MT-GFP expressing LNCaP cells presented a scattered distribution in the gels (FIG. 37-b2-b3). H & E staining of frozen sections confirmed this observation (FIG. 37A-a4,b4).

With `CSCC[C@H](NC(=O)[C@@H]1CCCN1C(=O)[C@H](Cc1ccc(O)cc1)NC(=O)CN)C(=O)N1CCC[C@H]1C(=O)O` [IS4-5, GYPMP] (H-GYPMP-OH; N-terminus and C-terminus assumed) the “MT1-MMP-induced proMMP-2 activation” value [1] was “specifically inhibited” and the IC50 [2] was 1500 nM.

`CSCC[C@H](NC(=O)[C@@H](N)C(C)C)C(=O)N[C@@H](CC(=O)O)C(=O)NCC(=O)N[C@@H](Cc1ccc(O)cc1)C(=O)N1CCC[C@H]1C(=O)N[C@@H](CCSC)C(=O)N1CCC[C@H]1C(=O)O` [IS4-8] (H-VMDGYPMP-OH; N-terminus and C-terminus assumed) was tested, and the cell migration [3] was “reduce cell migration”, the cell migration [4] was “reduce cell migration” and the cell migration [5] was “reduce cell migration”. The cell migration [6] was “reduce cell migration”, the “cell migration induced by MMP-9” value [7] was “do not affect cell migration” and the “cell migration induced by MT6-MMP” value [8] was “do not affect cell migration”. For the same compound, the “MT1-MMP-induced proMMP-2 activation” value [1] was “specifically inhibited” and the IC50 [2] was 1500 nM.

In the case of `CC(C)C[C@H](NC(=O)[C@H](C)NC(=O)[C@H](CO)NC(=O)[C@H](CCCCN)NC(=O)[C@@H]1CCCN1C(=O)[C@H](Cc1ccc(O)cc1)NC(=O)CN)C(=O)N[C@@H](CCCNC(=N)N)C(=O)O` [IVS4-8] (H-GYPKSALR-OH; N-terminus and C-terminus assumed), the cell migration [3] is reported as “reduce cell migration”, the cell migration [4] is reported as “reduce cell migration” and the cell migration [5] is reported as “reduce cell migration”. For the same compound, the cell migration [6] was “reduce cell migration”, the “cell migration induced by MMP-9” value [7] was “do not affect cell migration” and the “cell migration induced by MT6-MMP” value [8] was “do not affect cell migration”. It also gave an IC50 [2] of 10000 nM.

In the case of “GST-tagged MTPEX protein: purified GST fusion protein of the PEX domain of MT1-MMP”, the MT1-MMP-mediated cell migration [9] is reported as “inhibited MT1-MMP-mediated cell migration”, the MT1-MMP-mediated cell migration ([9]; listed as MT1-MMPPEX) is reported as “inhibited MT1-MMP-medicated LNCaP cell migration” and the MT1-MMP-mediated cell migration ([9]; listed as recombinant MT1-PEX protein) is reported as “blocked MT1-MMP-mediated cell migration”.

With “IS4: MT1-MMP specific inhibitory IS4 peptide given to mice in Example 27; length (IS4-8 or IS4-5) not stated (VMDGYPMP)” the “lung metastasis (degree/number of metastasized tumors)” value [10] was “reduced” and the “tumor foci area (size) in the lung” value [10] was “tumor sizes in scramble peptide treated mice were noticeably larger”.

“IVS4: MT1-MMP specific inhibitory IVS4 peptide given to mice in Example 27; probably IVS4-8 (GYPKSALR)” was tested, and the “lung metastasis (degree/number of metastasized tumors)” value [10] was “reduced” and the “tumor foci area (size) in the lung” value [10] was “tumor sizes in scramble peptide treated mice were noticeably larger”.

With “TIMP-1: recombinant TIMP-1, tissue inhibitor of metalloproteinases used as control inhibitor” the “cell migration over Matrigel” value [11] was “did not interfere with cell migration” and the “digestion of FITC-labeled Matrigel” value [11] was “partial inhibition of substrate digestion”.

For “biotinylated IS4-5: biotinylated IS4-5 (GYPMP) peptide used for flow cytometry (also: biotinylated, position not given here)”, the “binding to cells expressing MT1-MMP” value [12] was “specifically binds to cells expressing MT1-MMP”.

With “tissue inhibitor of matrix metalloproteinase-2 [TIMP-2]” the “cell surface E-cadherin shedding” value [13] was “interfered with cell surface E-cadherin shedding”, the “digestion of FITC-labeled Matrigel” value [11] was “totally abolished the digestion of Matrigel” and the “substrate degradation (FITC-labeled fibronectin)” value [14] was “interfered with substrate degradation”. The “scattered distribution of cells in type I collagen gel” value [15] was “abolished”.
